{"source": "patent US20230228764A1", "about": "“METHOD FOR THE DIAGNOSIS AND TREATMENT OF ESSENTIAL PRIMARY HYPERTENSION” (Universiteit Maastricht, priority 2020, published 2023)", "key": {"[1]": {"tested_on": "femoral arteries of aged WT and KI mice", "experiment": "Endothelium-independent relaxations induced by apo-sGC activator, wire myograph", "conditions": "BAY 60-2770 0.01-10 μM", "protocol": "(§1) To test which component of NO-cGMP signalling was most likely affected, we tested an uncoupling effect on endothelial NO synthase or an oxidative damage of the NO receptor, soluble guanylate cyclase yielding oxidized or heme-free apo-sGC [51, 52]. To test for sGC/apo-sGC, relaxing responses to the NO donor compound and sGC stimulator, PAPA/NO (0.01-10 μM), and to the aposGC activator, BAY 60-2770 (0.01-10 μM), were analyzed.\n(§2) After mice were sacrificed, thoracic aortae, femoral and saphenous arteries were dissected free from perivascular adipose tissue and mounted in a wire myograph (DMT, Aarhus, DK). The organ chamber was filled with Krebs-Ringer bicarbonate-buffered salt solution (KRB) that was continuously aerated with 95% O2/5% CO2 and maintained at 37° C. […] Arterial contractile and relaxing responses were recorded at lumen diameters corresponding to a distending pressure of 100 mmHg in thoracic aorta and femoral artery and at 90% of this diameter in the resistance-sized saphenous artery. […] Consequently, wall stiffness can be determined equally by recording 1) changes in tension in response to imposed changes in radius (wire myography) or 2) changes in radius in response to changes in transmural pressure (pressure myography). […] The wall tension of the vessel segment was continuously recorded with LabChart Pro (AD Instruments, Oxford, UK)."}, "[2]": {"tested_on": "thoracic aorta of aged KI and WT mice", "experiment": "Ach-induced relaxation of isolated thoracic aorta, wire myograph", "conditions": "thoracic aorta contracted with 258 nM endothelin-1, 100 μM L-NAME", "excerpt": "(§3) To test the effect of endothelial NOX5 on endothelium-dependent, NO-cGMP mediated relaxation, arterial segments were pre-contracted by either depolarization (K^+), α1-adrenergic activation (phenylephrine), or endothelin-1; vaso-relaxation was then induced by acetylcholine (Ach) the classical endothelium-derived relaxing factor stimulant. […] When comparing ours to previous studies, the Ach-induced relaxation of saphenous arteries of both mice groups seemed attenuated. There are two possible explanations for this discrepancy. First, we have used very old mice and other studies used young mice.\nas §2, with “DK).” for “DK). The organ chamber was filled with Krebs-Ringer bicarbonate-buffered salt solution (KRB) that was continuously aerated with 95% O2/5% CO2 and maintained at 37° C.”"}, "[3]": {"tested_on": "femoral arteries of aged NOX5 KI mice", "experiment": "Acetylcholine (Ach)-induced relaxation of isolated femoral arteries, wire myograph", "conditions": "for Reversal of impaired Ach-induced relaxation by antioxidant: femoral arteries of aged KI mice contracted with 10 μM phenylephrine, Ach 10 μM", "excerpt": "as §3\nAfter mice were sacrificed, thoracic aortae, femoral and saphenous arteries were dissected free from perivascular adipose tissue and mounted in a wire myograph (DMT, Aarhus, DK). The organ chamber was filled with Krebs-Ringer bicarbonate-buffered salt solution (KRB) that was continuously aerated with 95% O2/5% CO2 and maintained at 37° C. Passive stretch procedure was performed to mimic the physiologically relevant internal lumen diameter as previously described. Arterial contractile and relaxing responses were recorded at lumen diameters corresponding to a distending pressure of 100 mmHg in thoracic aorta and femoral artery and at 90% of this diameter in the resistance-sized saphenous artery. […] The diameter tension relationships were constructed according to the law of Laplace for a cylindrical tube: P=T/R (with P for transmural pressure, T for wall tension and R for the lumen radius of the tube). Consequently, wall stiffness can be determined equally by recording 1) changes in tension in response to imposed changes in radius (wire myography) or 2) changes in radius in response to changes in transmural pressure (pressure myography). Here we used the former approach because it has a higher throughput than the latter. Stress-strain relationships and even better “incremental elastic (Young's) modulus” (which require additional recording of wall thickness) only come into play to discriminate between structural and material property contributions to changes in arterial stiffness. Part of the isolated thoracic aorta was studied in the absence and part in the continuous presence of 10 μM indomethacin to inhibit production of prostaglandins that can act as endothelium-derived vasoactive factors in this vessel. The vessels were tested for their contractile response to 40 mM K^+, concentration-response curves of phenylephrine (0.01 to 100 μM) and endothelin-1 (1-256 nM) followed by acetylcholine (Ach) (0.01 to 100 μM), PAPA/NO (0.01-10 μM) or Bay60-2770 (0.01-10 μM)-induced relaxations. The wall tension of the vessel segment was continuously recorded with LabChart Pro (AD Instruments, Oxford, UK)."}, "[4]": {"tested_on": "femoral arteries of aged NOX5 KI mice", "experiment": "Measurement of superoxide formation: DHE staining", "conditions": "pre-treatment with 500 μM L-NAME for 30 min at 37° C.", "protocol": "Superoxide was measured in femoral arteries using the florescence dye dihydroethidium (DHE) (Thermo Scientific Technology, The Netherlands). Frozen femoral arteries cryo-sections were fixated in 4% paraformaldehyde (PFA) in PBS and then incubated with 2 μM DHE for 30 minutes at 37° C. After three washing steps with PBS, slices were incubated with DAPI (Sigma-Aldrich, The Netherlands) […] for 10 min. Sections were washed in PBS and then mounted using a Dako Fluorescence Mounting Medium ([…], Agilent Technologies). Immunofluorescent signals were viewed using a Leica DM13000 B fluorescence microscope. Some arteries were pre-treated with 500 μM L-NAME for 30 min at 37° C. before performing the DHE staining."}, "[5]": {"tested_on": "saphenous arteries of aged KI and WT mice", "experiment": "Ach-induced relaxation of isolated saphenous arteries, wire myograph", "conditions": "saphenous arteries contracted with endothelin-1; 100 μM L-NAME; both types of mice", "excerpt": "as §3\nas §2, with “DK).” for “DK). The organ chamber was filled with Krebs-Ringer bicarbonate-buffered salt solution (KRB) that was continuously aerated with 95% O2/5% CO2 and maintained at 37° C.”"}, "[6]": {"tested_on": "femoral arteries, saphenous arteries and thoracic aortae of aged WT and KI mice", "experiment": "Endothelium-independent relaxations induced by NO donor, wire myograph", "conditions": "PAPA/NO 0.01-10 μM, thoracic aortae with/without indomethacin", "protocol": "as §1, §2"}, "[7]": {"tested_on": "hypertensive patients", "conditions": "cited from earlier work"}, "[8]": {"tested_on": "thoracic aorta of the KI and WT mice", "experiment": "Agonist-induced contractile responses, wire myograph", "conditions": "10 μM indomethacin", "excerpt": "We next tested whether, alternatively, chronic changes in the underlying arterial smooth muscle layer could have contributed to the observed blood pressure and vasomotor phenotypes in aged NOX5 KI mice. Contractile responses to K^+ and the sensitivity and maximal responsiveness to phenylephrine and endothelin-1 did, however, not differ between KI and WT mice in all arterial segments (FIGS. 10 A-I).\nas §2"}, "[9]": {"tested_on": "elevated blood pressure induced by NOS uncoupling", "conditions": "preclinical, refs [85, 86]; cited from earlier work"}}, "note": "Entries after “also recorded” stand apart in the source; their conditions may differ."}
{"smiles": "O=C(O)CCCCN(CCc1cc(F)ccc1OCc1ccc(-c2ccc(C(F)(F)F)cc2)cc1)Cc1ccc(C(=O)O)cc1", "note": "[BAY 60-2770]", "values": [{"measurement": "Relaxing response, WT vs KI mice", "setting": "[1]", "value": "Neither the PAPA/NO (FIGS. 13 A-C) nor the BAY 60-2770 response (FIG. 11 D) differed"}, {"measurement": "Relaxing response, WT vs KI mice", "setting": "[1]; listed as Bay60-2770", "value": "did not differ"}]}
{"smiles": "COC(=O)[C@@H](N)CCCNC(=N)N[N+](=O)[O-]", "note": "[L-NAME]", "values": [{"measurement": "Reversal of the relaxing effects of Ach", "setting": "[2]", "value": "reversed"}, {"measurement": "Reversal of the relaxing effects of Ach", "setting": "[3]; femoral artery contracted with 258 nM endothelin-1, 100 μM L-NAME, KI and WT mice", "value": "reversed"}, {"measurement": "Superoxide formation (DHE staining), increase in KI vs WT", "setting": "[4]", "value": "this increase was inhibited"}, {"measurement": "Reversal of the relaxing effects of Ach", "setting": "[5]", "value": "did not modify the relaxing effects of Ach"}]}
{"smiles": "CC(=O)N[C@@H](CS)C(=O)O", "note": "[N-acetylcysteine]", "values": [{"measurement": "Reversal of impaired Ach-induced relaxation by antioxidant", "setting": "[3]; 10 μM N-acetylcysteine", "value": "not reversed; also recorded: Neither 10 μM N-acetylcysteine nor 100 μM tempol, however, were effective"}]}
{"smiles": "CCCN(CCCN)/[N+]([O-])=N/O", "note": "[PAPA/NO]", "values": [{"measurement": "Relaxing response, WT vs KI mice", "setting": "[6]", "value": "Neither the PAPA/NO (FIGS. 13 A-C) nor the BAY 60-2770 response (FIG. 11 D) differed"}, {"measurement": "Relaxing response, WT vs KI mice", "setting": "[6]; listed as PAPA NO", "value": "did not differ"}]}
{"smiles": "Nc1nc2ncc(CNc3ccc(C(=O)N[C@@H](CCC(=O)O)C(=O)O)cc3)nc2c(=O)[nH]1", "note": "[folic acid]", "values": [{"measurement": "Effect on elevated blood pressure", "setting": "[7]; clinical, by improving endothelial function, refs [88, 89]", "value": "clinically effective to reduce elevated blood pressure"}, {"measurement": "Risk of cardiovascular and cerebrovascular events", "setting": "[7]; hypertensive patients, alone or in combination with anti-hypertensives, refs [90-92]", "value": "reduces the risk of cardiovascular and cerebrovascular events"}]}
{"smiles": "COc1ccc2c(c1)c(CC(=O)O)c(C)n2C(=O)c1ccc(Cl)cc1", "note": "[indomethacin]", "values": [{"measurement": "Blunting of agonist-induced contractile responses, KI vs WT mice", "setting": "[8]", "value": "similar"}]}
{"smiles": "C[C@H](O)C(=O)C1=Nc2c(nc(N)[nH]c2=O)NC1", "note": "[sepiapterin]", "values": [{"measurement": "Ach-induced relaxation after pre-treatment", "setting": "[3]; femoral arteries of aged KI mice pre-contracted with phenylephrine, sepiapterin 100 μM", "value": "improved relaxation in KI; also recorded: greatly improved and became indistinguishable from those in WT"}, {"measurement": "Effect on elevated blood pressure", "setting": "[9]", "value": "lower elevated blood pressure"}]}
{"smiles": "CC1(C)CC(O)CC(C)(C)N1[O]", "note": "[tempol]", "values": [{"measurement": "Reversal of impaired Ach-induced relaxation by antioxidant", "setting": "[3]; 100 μM tempol", "value": "not reversed; also recorded: Neither 10 μM N-acetylcysteine nor 100 μM tempol, however, were effective"}]}
